The results in this text go back to US20050143427A1, “[B]-fused bicyclic proline derivatives and their use for treating arthritic conditions” (priority 2003, published 2005).

SMILES strings stand for the structures.

The target in data set [1] is T1, alpha-2-delta receptor 2 (A2DR2) (Homo sapiens, UniProt Q9NY47).
T1 construct: expressed in transfected cells; host or cells: HEK 293 (membrane preparation)
The data set can be described thus: [3H]Gabapentin A2DR2 binding assay (filter, Biological Method 4). As to conditions: displacement of [3H]-gabapentin. The source says: (§1) HEK 293 recombinant cells expressing A2DR1 or A2DR2 protein are harvested and washed in phosphate buffered saline (“PBS”). The cells are centrifuged and resuspended in tris(hydroxymethyl)aminomethane-ethylenediaminetetraacetic acid (“Tris-EDTA” or “TE”) buffer containing Roche Complete Protease Inhibitor Cocktail. The cells are homogenized, centrifuged at 3000×g, and the supernatant centrifuged again at 50,000×g. The resulting pellet is resuspended and homogenized in TE. Following determination of A2DR1 or A2DR2 protein concentration, aliquots are stored at −70° C. until the day of testing (membrane preparation may be used for at least 6 months).
(§2) In one version, the binding assay is set up in a 96-well format using deep-well polypropylene plates. In a total volume of 500 μL, the following additions are made: 250 μL buffer [[…] N-2-hydroxyethylpiperazine-N′-2-ethanesulfonic acid (“HEPES”), pH 7.4], 25 μL [3H]gabapentin (10 nM final concentration), 200 μL thawed tissue membrane preparation from Step (1) (˜40 μg protein), and 25 μL of test compound at 7 test dilutions (for example, 0.001, 0.01, 0.03, 0.1, 0.3, 1.0, and 10 μM concentrations). Non-specific binding for each plate is determined by the addition of 10 μM of pregabalin instead of test compound in a few of the 96 wells. Following incubation for 45 minutes at 21° C., the contents of the wells are filtered under vacuum onto glass filter/B (“GF/B”) filter mats and then washed 4×1 mL with chilled 50 mM tris(hydroxymethyl)aminomethane (“Tris”) HCl, pH 6.9. The mats are placed into plastic pouches, scintillation cocktail is added, the pouches are sealed, and radioactivity for each sample is counted.
(§3) Specific binding values for each concentration are transformed and then analyzed by a 4-parameter nonlinear regression equation provided by Prism graphics software by Graph Pad to determine IC50 values by conventional means.
A general note: Displacement assays read how much labelled ligand stays bound in the presence of the test substance.

Data set [2] concerns the target pig alpha-2-delta receptor 1 (A2DR1) (Sus scrofa, UniProt A0A287BIN3). The data set can be described thus: [3H]Gabapentin scintillant proximity A2DR1 binding assay (A2DR1 SPA, Biological Method 5). As to conditions: displacement of [3H]-gabapentin. As for the experimental part: (§4) Recombinant HEK 293 cells expressing pig A2DR1 and A2DR2 subunits were grown under normal cell culture conditions (RPMI-1640 media with 10% FBS, 200 μg G418, and 1% penicillin/streptomycin 1t 37° C. with 5% CO2) until reaching confluency in T-75 flasks, at which time they were harvested. The harvested cells were suspended in ice-cold 5 mM Tris/5 mM ethylenediaminetetraacetic acid (“EDTA”) buffer, pH 7.4 (“TE buffer”) containing phenylmethylsulfonyl fluoride (“PMSF”) (0.1 mM) and Roche Complete Protease Inhibitor Cocktail, and allowed to sit on ice for 30 minutes. The cells were broken by sonication using 20 bursts, 40-50 cycles, and then centrifuged at 3000×g for 10 minutes. The resulting supernatant was transferred to a new tube and centrifuged at 50,000×g for 30 minutes. The resulting pellet was resuspended in 10 mM HEPES buffer, pH 7.4, homogenized, and stored at—80° C. The A2DR1 or A2DR2 membrane protein concentration was determined by the Pierce BCA method using bovine serum albumin (“BSA”) as the standard.
(§5) The [^3H]gabapentin SPA binding assay was performed in Costar 3632 96-well, clear bottom assay plates using Wheatgerm agglutinin beads (Amersham Pharmacia Biotech). Pig A2DR1 or A2DR2 membranes (10-20 μg protein per well) prepared above in Step (1) and SPA beads (0.5 mg per well) were mixed with 30 nM [^3H]gabapentin (52 Ci/mmol; Amersham Pharmacia Biotech) in 10 mM HEPES/10 mM MgSO4 assay buffer, pH 7.4 using KOH. The final well volume was 200 μL and non-specific binding was determined in the presence of 10 μM unlabeled pregabalin. The final mixture containing A2DR1 or A2DR2 membrane protein incubated with SPA beads, test compounds, and [^3H]gabapentin was incubated at room temperature for 15-24 hours, and the plates were then counted on a Wallace Trilux 1450 Microbeta scintillation counter. Step (3): Determination of IC50 values
(§6) Curve fitting and IC50 values were calculated using a four-parameter, non-linear regression equation from GraphPad Prism 3.0 software, while Ki values were determined using the equation of Chang and Prussoff.

In data set [3] the test system is MIA Rat (monosodium iodoacetate-induced osteoarthritis, right knee joint). The data set can be described thus: Monosodium iodoacetate-induced osteoarthritis in rat model of joint cartilage damage (MIA Rat). The class given is in vivo. As to conditions: 2-week MIA study, Day 14, rat; for % I @ 10 mg/kg/day (%) (± SEM): inhibition of loss of hind limb joint function in MIA at Day 14: 10 mg/kg/day via osmotic pump. The source says: One end result of the induction of osteoarthritis in this model, as determined by histologic analysis, is the development of an osteoarthritic condition within the affected joint, as characterized by the loss of Toluidine blue staining and formation of osteophytes. Associated with the histologic changes is a concentration-dependent degradation of joint cartilage, as evidenced by affects on hind-paw weight distribution of the limb containing the affected joint, the presence of increased amounts of proteoglycan or hydroxyproline in the joint upon biochemical analysis, or histopathological analysis of the osteoarthritic lesions.
The invention compounds typically are not effective for relieving joint pain when administered in an acute model, such as the instant MIA Rat model, which has a duration of just 14 or 28 days.
Generally, In the MIA Rat model on Day 0, the hind-paw weight differential between the right arthritic joint and the left healthy joint of male Wistar rats (150 g) are determined with an incapacitance tester, model 2KG (Linton Instrumentation, Norfolk, United Kingdom). The incapacitance tester has a chamber on top with an outwardly sloping front wall that supports a rat's front limbs, and two weight sensing pads, one for each hind paw, that facilitates this determination. Then the rats are anesthetized with isofluorine, and the right, hind leg knee joint is injected with 1.0 mg of mono-iodoacetate (“MIA”) through the infrapatellar ligament. Injection of MIA into the joint results in the inhibition of glycolysis and eventual death of surrounding chondrocytes. The rats are further administered either an invention compound or vehicle (in the instant case, water) daily for 14 days or 28 days.
The invention compound is typically administered at a dose of 30 mg of per kilogram of rat per day (30 mg/kg/day), but may be administered at other doses such as, for example, 10 mg/kg/day, 60 mg/kg/day, 90-mg/kg/day, or 100 mg/kg/day according to the requirements of the invention compound being studied. It is well within the level of ordinary skill in the pharmaceutical arts to determine a proper dosage of an invention compound in this model.
Administration of an invention compound in this model is optionally by oral administration or by intravenous administration via an osmotic pump. After 7 and 14 days for a two week study, or 7, 14, and 28 days for a four week study, the hind-paw weight distribution is again determined. Typically, the animals administered vehicle alone place greater weight on their unaffected left hind paw than on their right hind paw, while animals administered an invention compound show a more normal (i.e., more like a healthy animal) weight distribution between their hind paws. This change in weight distribution was proportional to the degree of joint cartilage damage. Percent inhibition of a change in hind paw joint function is calculated as the percent change in hind-paw weight distribution for treated animals versus control animals. For example, for a two week study, [formula] wherein: ΔWC is the hind-paw weight differential between the healthy left limb and the arthritic limb of the control animal administered vehicle alone, as measured on Day 14; and • ΔWG is the hind-paw weight differential between the healthy left limb and the arthritic limb of the animal administered an invention compound as measured on Day 14.
In order to measure biochemical or histopathological end points in the MIA Rat model, some of the animals in the above study may be sacrificed, and the amounts of free proteoglycan in both the osteoarthritic right knee joint and the contralateral left knee joint may be determined by biochemical analysis. The amount of free proteoglycan in the contralateral left knee joint provides a baseline value for the amount of free proteoglycan in a healthy joint. […]

The target in data set [4] is pig alpha-2-delta receptor 2 (A2DR2) (UniProt A0A8W4FF87). The data set can be described thus: [3H]Gabapentin scintillant proximity A2DR2 binding assay (A2DR2 SPA, Biological Method 5). As to conditions: displacement of [3H]-gabapentin. Here is the method:
as §4, §5, §6

The target in data set [5] is alpha-2-delta receptor 1 (A2DR1) (Homo sapiens, UniProt P54289). The data set can be described thus: [3H]Gabapentin A2DR1 binding assay (filter, Biological Method 4). Conditions: displacement of [3H]-gabapentin.
From the text: as §1, §2, §3

T1 sequence (Q9NY47 19-1150): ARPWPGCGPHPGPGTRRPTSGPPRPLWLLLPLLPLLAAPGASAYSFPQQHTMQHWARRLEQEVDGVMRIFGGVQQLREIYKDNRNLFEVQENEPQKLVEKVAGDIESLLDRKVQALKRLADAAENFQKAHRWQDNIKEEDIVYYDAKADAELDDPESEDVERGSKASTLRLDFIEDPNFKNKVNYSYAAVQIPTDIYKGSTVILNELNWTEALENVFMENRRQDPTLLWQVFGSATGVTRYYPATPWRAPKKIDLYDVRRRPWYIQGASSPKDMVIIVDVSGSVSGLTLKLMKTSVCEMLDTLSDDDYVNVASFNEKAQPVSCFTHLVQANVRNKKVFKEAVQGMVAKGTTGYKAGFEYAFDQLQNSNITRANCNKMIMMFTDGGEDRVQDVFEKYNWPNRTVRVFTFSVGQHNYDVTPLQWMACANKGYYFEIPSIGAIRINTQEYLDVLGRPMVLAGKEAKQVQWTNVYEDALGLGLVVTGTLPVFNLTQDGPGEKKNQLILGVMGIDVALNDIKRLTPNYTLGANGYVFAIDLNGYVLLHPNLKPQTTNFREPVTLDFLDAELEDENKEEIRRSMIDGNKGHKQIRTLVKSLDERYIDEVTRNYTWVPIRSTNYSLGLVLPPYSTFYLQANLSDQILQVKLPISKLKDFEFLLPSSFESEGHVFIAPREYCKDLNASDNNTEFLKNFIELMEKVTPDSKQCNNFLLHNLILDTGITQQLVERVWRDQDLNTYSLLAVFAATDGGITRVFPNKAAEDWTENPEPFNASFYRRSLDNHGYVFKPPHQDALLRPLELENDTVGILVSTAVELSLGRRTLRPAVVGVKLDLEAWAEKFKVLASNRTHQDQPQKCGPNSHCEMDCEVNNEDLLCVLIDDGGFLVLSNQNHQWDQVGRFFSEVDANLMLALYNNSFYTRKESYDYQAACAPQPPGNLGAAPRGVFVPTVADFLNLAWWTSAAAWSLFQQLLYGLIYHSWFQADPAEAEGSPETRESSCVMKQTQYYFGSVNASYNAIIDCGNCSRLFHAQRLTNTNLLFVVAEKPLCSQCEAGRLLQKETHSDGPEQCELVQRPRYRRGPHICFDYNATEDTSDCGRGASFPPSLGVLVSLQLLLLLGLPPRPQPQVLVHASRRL
Sequence of alpha-2-delta receptor 1 (A2DR1) (P54289 25-1103): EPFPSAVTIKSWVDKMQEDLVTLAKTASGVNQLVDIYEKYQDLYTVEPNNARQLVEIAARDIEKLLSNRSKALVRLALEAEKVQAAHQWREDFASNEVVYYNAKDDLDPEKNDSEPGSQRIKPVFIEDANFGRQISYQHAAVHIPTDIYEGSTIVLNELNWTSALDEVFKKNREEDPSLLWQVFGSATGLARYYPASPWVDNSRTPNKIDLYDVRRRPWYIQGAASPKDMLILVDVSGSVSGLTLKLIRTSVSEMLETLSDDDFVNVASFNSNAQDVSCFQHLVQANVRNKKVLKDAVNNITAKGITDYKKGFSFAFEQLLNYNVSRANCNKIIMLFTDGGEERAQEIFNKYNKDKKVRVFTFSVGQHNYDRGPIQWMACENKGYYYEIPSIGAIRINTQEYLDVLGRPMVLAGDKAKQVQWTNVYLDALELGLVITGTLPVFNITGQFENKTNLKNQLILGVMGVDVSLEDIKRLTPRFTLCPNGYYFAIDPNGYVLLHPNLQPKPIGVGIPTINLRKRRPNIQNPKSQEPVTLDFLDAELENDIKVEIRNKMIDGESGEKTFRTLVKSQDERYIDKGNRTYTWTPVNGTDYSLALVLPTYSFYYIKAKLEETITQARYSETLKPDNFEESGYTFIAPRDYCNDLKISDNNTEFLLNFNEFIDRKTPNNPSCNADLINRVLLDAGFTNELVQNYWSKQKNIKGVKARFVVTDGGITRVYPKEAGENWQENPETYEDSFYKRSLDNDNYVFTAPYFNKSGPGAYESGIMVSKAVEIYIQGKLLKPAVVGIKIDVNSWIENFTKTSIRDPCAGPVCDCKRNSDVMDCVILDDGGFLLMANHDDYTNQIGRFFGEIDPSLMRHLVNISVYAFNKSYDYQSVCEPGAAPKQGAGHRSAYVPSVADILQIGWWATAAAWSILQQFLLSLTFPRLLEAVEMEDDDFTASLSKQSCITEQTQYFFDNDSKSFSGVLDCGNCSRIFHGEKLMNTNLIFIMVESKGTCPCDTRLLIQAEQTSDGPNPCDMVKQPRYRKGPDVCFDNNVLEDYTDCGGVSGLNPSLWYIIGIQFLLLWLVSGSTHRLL
Sequence of pig alpha-2-delta receptor 1 (A2DR1) (A0A287BIN3 1-1109): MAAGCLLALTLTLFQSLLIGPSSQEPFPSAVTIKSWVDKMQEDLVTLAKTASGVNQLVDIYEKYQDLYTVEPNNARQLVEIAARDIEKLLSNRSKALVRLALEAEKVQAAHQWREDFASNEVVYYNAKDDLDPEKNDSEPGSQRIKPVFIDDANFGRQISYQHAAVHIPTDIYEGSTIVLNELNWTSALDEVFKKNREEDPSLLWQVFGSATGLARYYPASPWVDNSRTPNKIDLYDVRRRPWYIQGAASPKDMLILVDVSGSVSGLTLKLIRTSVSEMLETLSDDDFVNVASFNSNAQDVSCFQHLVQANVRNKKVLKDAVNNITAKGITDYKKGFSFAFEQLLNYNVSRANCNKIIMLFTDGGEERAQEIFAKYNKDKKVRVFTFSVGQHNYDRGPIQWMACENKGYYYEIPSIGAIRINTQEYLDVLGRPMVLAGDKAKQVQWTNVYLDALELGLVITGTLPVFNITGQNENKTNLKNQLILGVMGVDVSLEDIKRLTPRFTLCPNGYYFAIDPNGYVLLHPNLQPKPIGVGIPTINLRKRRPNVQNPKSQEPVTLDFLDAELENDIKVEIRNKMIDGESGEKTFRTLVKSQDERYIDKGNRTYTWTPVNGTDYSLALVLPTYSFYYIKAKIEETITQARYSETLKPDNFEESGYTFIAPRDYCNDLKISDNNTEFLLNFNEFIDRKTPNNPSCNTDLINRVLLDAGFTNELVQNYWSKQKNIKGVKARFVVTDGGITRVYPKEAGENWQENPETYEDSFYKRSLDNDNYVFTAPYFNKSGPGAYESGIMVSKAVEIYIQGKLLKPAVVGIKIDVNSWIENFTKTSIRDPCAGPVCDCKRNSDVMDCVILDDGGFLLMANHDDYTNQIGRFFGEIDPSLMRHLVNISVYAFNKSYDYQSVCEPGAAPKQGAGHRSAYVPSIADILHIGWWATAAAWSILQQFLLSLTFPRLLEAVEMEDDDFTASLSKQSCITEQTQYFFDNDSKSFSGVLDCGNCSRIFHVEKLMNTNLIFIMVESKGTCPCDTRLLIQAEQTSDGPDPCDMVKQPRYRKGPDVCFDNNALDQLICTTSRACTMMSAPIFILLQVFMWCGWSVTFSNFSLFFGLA

As to `C1CC[C@@H]2N[C@H](c3nnn[nH]3)C[C@@H]2C1`, the melting point (as a rule, the temperature, or range, at which the solid turns liquid) was 240 °C (dec.).
For the compound `CCC1CC[C@@H]2C[C@@H](C(=O)O)N[C@@H]2C1.Cl` (stereo partly drawn), the melting point lay within 188 to 190 °C.
For `O=C(O)[C@@H]1C[C@H]2CCC(c3ccccc3)C[C@H]2N1` (stereo partly drawn), the melting point lay within 200 to 205 °C.
On the same count and under the same terms, as for `CN(C)CCOC(=O)[C@@H]1C[C@@H]2CCCC[C@@H]2N1.Cl`, the figure is 189 to 195 °C.
As to `CN1C(C(=O)O)C[C@@H]2CCCC[C@@H]21` (mixture of isomers) [Example A4], the IC50 in data set [1], in data set [2] and in data set [4] was at least 10 µM throughout. Besides, in data set [3], the “% I @ 10 mg/kg/day (%) (± SEM): inhibition of loss of hind limb joint function in MIA at Day 14” value is listed as 67 ± 8%.
`CC1(C(=O)O)C[C@@H]2CCCC[C@@H]2N1` (mixture of isomers) [Example B2]: the half-maximal inhibitory concentration (IC50) (as a rule, the point on the concentration scale where inhibition reaches its midpoint) in data set [5] is 2.83 µM; in data set [1], at least 10 µM; in data set [2] it was at least 10 µM; in data set [4], at least 10 µM. Besides, the “% I @ 10 mg/kg/day (%) (± SEM): inhibition of loss of hind limb joint function in MIA at Day 14” value in data set [3] stood at 58 ± 12%.
Turning to `O=C(NS(=O)(=O)C(F)(F)F)[C@@H]1C[C@@H]2CCCC[C@@H]2N1` [Example E3], the melting point was in the range of 247 to 249 °C. In data set [5], this compound returned an IC50 of at least 10 µM. This compound registered an IC50 in data set [1] of at least 10 µM.
Regarding `CN1[C@H](C(=O)NS(=O)(=O)C(F)(F)F)C[C@@H]2CCCC[C@@H]21` [Example E4], the melting point was 189 to 192 °C. In addition, the IC50 in data set [5] was at least 10 µM. Further, in data set [1], the half-inhibitory concentration (IC50) was at least 10 µM.
As for `O=c1[nH]c([C@@H]2C[C@@H]3CCCC[C@@H]3N2)no1` [Example F1], in data set [1], the half-inhibitory concentration (IC50) was at least 10 µM. The “% I @ 30 mg/kg BID (%) (± SEM): inhibition of loss of hind limb joint function in MIA at Day 14” value in data set [3] (30 mg/kg BID oral) was “(i) 82^2; %”.
In data set [1], `COC1CCC2CC(C(=O)O)NC2C1` (stereo not drawn) [Example O3] displayed a half-maximal inhibitory concentration (IC50) of 2.23 µM.
On to `CC1CCC2NC(C(=O)O)CC2C1` (stereo not drawn) [Example O5], for which the half-inhibitory concentration (IC50) was 0.11 µM in data set [5], 0.29 µM in data set [1], 2.8 µM in data set [2] and at least 10 µM in data set [4]. In addition, in data set [3], the “% I @ 10 mg/kg/day (%) (± SEM): inhibition of loss of hind limb joint function in MIA at Day 14” value is listed as −32 ± 20%.
Take `O=C(NC1CCC2NC(C(=O)O)CC2C1)C1CCCCC1` (stereo not drawn) [Example O6]: the half-maximal inhibitory concentration (IC50) in data set [5] and in data set [1] was at least 10 µM in each case. The “% I @ 10 mg/kg/day (%) (± SEM): inhibition of loss of hind limb joint function in MIA at Day 14” value in data set [3] is −48 ± 10%.
Take `NC1CCC2NC(C(=O)O)CC2C1` (stereo not drawn) [Example O7]: the IC50 in data set [5] and in data set [1] was at least 10 µM each time. Further, in data set [3], the “% I @ 10 mg/kg/day (%) (± SEM): inhibition of loss of hind limb joint function in MIA at Day 14” value is −63 ± 14%.
